Assay results from ChEMBL document CHEMBL1136837, “Unified QSAR approach to antimicrobials. 4. Multi-target QSAR modeling and comparative multi-distance study of the giant components of antiviral drug-drug complex networks” (Bioorg Med Chem, 2009).
Starred links: 1 amine or outer side, 2 acyl side, 3 side chain; linkers in the order of their positions; H or OH if unused. Non-standard residues stand in square brackets, D forms with d. Residues, ends and D or L forms follow the SMILES beside them. *: point of attachment. Hyp(2-Ph-quinolin-4-yl) = O=C(O)[C@@H]1C[C@@H](Oc2cc(-c3ccccc3)nc3ccccc23)CN1; Acca(2-Et,1R,2R) = CC[C@@H]1C[C@]1(N)C(=O)O; NH(1S-phenylpropyl) = CC[C@H](N*)c1ccccc1; NH(1R-phenylethyl) = C[C@@H](N*)c1ccccc1; Dip = N[C@H](C(=O)O)C(c1ccccc1)c1ccccc1; CH2(1-naphthyl) = c1ccc2c(C*)cccc2c1; Hyp = O=C(O)[C@@H]1C[C@@H](O)CN1; X8 = CCCN(N*)C(=O)NN(C)c1ccccc1; azaNva = CCCN(N[*:1])C(=O)[*:2]; Cha = N[C@@H](CC1CCCCC1)C(=O)O; X2 = C[C@H](N*)c1cccc2ccccc12; Chg = N[C@H](C(=O)O)C1CCCCC1; NH(CH2)3Ph = c1ccc(CCCN*)cc1; NHPhenethyl = c1ccc(CCN*)cc1; X3 = C[C@H](N*)c1ccc(Br)cc1; X5 = c1ccc2c(c1)CC[C@@H]2N*; X6 = c1ccc2c(c1)CC(N*)C2; Ac3c = NC1(C(=O)O)CC1; X1 = Clc1ccccc1CCN*; Bn = c1ccc(C*)cc1

Test system: Hepatitis C virus
Assay: Antiviral activity against Hepatitis C virus
Type: functional, organism-based, Hepacivirus hominis

| Structure (SMILES) | IC50 (Hepatitis C virus) [nM] | IC50 [nM] |
| --- | --- | --- |
| COc1ccc2c(O[C@@H]3C[C@H]4C(=O)N[C@]5(C(=O)O)C[C@H]5/C=C\CCCCC[C@H](NC(=O)OC5CCCC5)C(=O)N4C3)cc(-c3csc(NC(C)=O)n3)nc2c1 | 2.5 | – |
| COc1ccc2c(O[C@@H]3C[C@H]4C(=O)N[C@]5(C(=O)O)C[C@H]5/C=C\CCCCC[C@H](NC(=O)N[C@H](C)C(C)(C)C)C(=O)N4C3)cc(-c3csc(NC(C)=O)n3)nc2c1 | 1.4 | – |
| O=C(O)[C@H](Cc1ccccc1)N(Cc1cccc([N+](=O)[O-])c1)C(=O)c1ccc(Cl)cc1Cl | 700 | – |
| CC(=O)N[C@H](C(=O)N[C@H](C(=O)N1C[C@H](Oc2cccc(-c3cccc([N+](=O)[O-])c3)c2)C[C@H]1C(=O)NC1(C(=O)O)CC1)C(C)C)C1CCCCC1 | 4000 | – |
| CCC[C@@]1(CC(=O)O)OCCc2c1[nH]c1c(C)ccc(C#N)c21 | 2400 | – |
| CC(=O)N[C@@H](CC(=O)O)C(=O)N[C@@H](CCC(=O)O)C(=O)N[C@H](C(=O)N[C@@H](CCC(=O)O)C(=O)N[C@@H](CC1CCCCC1)C(=O)N[C@@H](CS)C(=O)NCCc1ccccc1Cl)C(c1ccccc1)c1ccccc1 (Ac-DE[Dip]E[Cha]C-X1) | 2 | – |
| CC(=O)N[C@@H](CC(=O)O)C(=O)N[C@@H](CCC(=O)O)C(=O)N[C@H](C(=O)N[C@@H](CCC(=O)O)C(=O)N[C@@H](CC1CCCCC1)C(=O)N[C@@H](CS)C(=O)NCCc1ccccc1)C(c1ccccc1)c1ccccc1 (Ac-DE[Dip]E[Cha]C-NHPhenethyl) | 7 | – |
| CC(=O)N[C@H](C(=O)N[C@H](C(=O)N1C[C@H](OCc2cccc3ccccc23)C[C@H]1C(=O)NC1(C(=O)O)CC1)C(C)C)C1CCCCC1 (Ac-[Chg]V[Hyp](CH2(1-naphthyl))[Ac3c]-OH) | 4000 | – |
| CCc1ccc(Cl)c2[nH]c3c(c12)CCOC3(CC)CC(=O)O (configuration not stated) | 30000 | – |
| CCC[C@]1(CC(=O)O)OCCc2c1[nH]c1c(C)cc(F)c(C#N)c21 | 80 | – |
| N#Cc1ccc(CN(C(=O)c2ccc(Cl)cc2Cl)[C@@H](Cc2ccccc2)C(=O)O)cc1 | 8000 | – |
| CC(C)COC(=O)N[C@@H](CCC(=O)O)C(=O)N[C@@H](CC(C)C)C(=O)N[C@@H](CS)C(=O)NCCc1ccc(C(=O)O)cc1 | 2000 | – |
| Cc1cn([C@@H]2O[C@H](CO)[C@@H](O)[C@@]2(C)O)c2ncnc(N)c12 | 34000 | – |
| COc1ccc2c(O[C@@H]3C[C@H]4C(=O)N[C@]5(C(=O)O)C[C@H]5/C=C\CCCCC[C@H](NC(=O)OC(C)(C)C)C(=O)N4C3)cc(-c3nnc(C)o3)nc2c1 | 12 | – |
| CC(C)COC(=O)N[C@@H](CCC(=O)O)C(=O)N[C@@H](CC(C)C)C(=O)N[C@@H](CS)C(=O)NCCc1ccccc1 | 19000 | – |
| CC(=O)N[C@@H](CC(=O)O)C(=O)N[C@@H](CCC(=O)O)C(=O)N[C@H](C(=O)N[C@@H](CCC(=O)O)C(=O)N[C@@H](CC1CCCCC1)C(=O)N[C@@H](CS)C(=O)NCCCc1ccccc1)C(c1ccccc1)c1ccccc1 (Ac-DE[Dip]E[Cha]C-{NH(CH2)3Ph}) | 210 | – |
| CC(C)(C)C(=O)CC(=O)C(=O)O | 50000 | – |
| CCCCOc1ccccc1C(=O)CC(=O)C(=O)O | 10000 | – |
| CCCN(NC(=O)[C@@H]1C[C@@H](OCc2ccccc2)CN1C(=O)[C@@H](NC(=O)[C@@H](NC(=O)[C@@H](CCC(=O)O)NC(=O)[C@H](CC(=O)O)NC(C)=O)[C@@H](C)CC)C(C)C)C(=O)N[C@@H](C)c1ccc(Br)cc1 (Ac-D[dE]IV[Hyp](Bn)[azaNva]-X3) | 72 | – |
| CC[C@@H]1C[C@]1(NC(=O)[C@@H]1C[C@@H](Oc2cc(-c3ccccc3)nc3ccccc23)CN1C(=O)[C@@H](NC(=O)[C@@H](NC(C)=O)C1CCCCC1)C(C)C)C(=O)O (Ac-[Chg]V[Hyp(2-Ph-quinolin-4-yl)][Acca(2-Et,1R,2R)]-OH) | 13 | – |
| CCCN(NC(=O)[C@@H]1C[C@@H](OCc2ccccc2)CN1C(=O)[C@@H](NC(=O)[C@@H](NC(=O)[C@@H](CCC(=O)O)NC(=O)[C@H](CC(=O)O)NC(C)=O)[C@@H](C)CC)C(C)C)C(=O)N[C@H](C)c1ccccc1 (Ac-D[dE]IV[Hyp](Bn)[azaNva]-{NH(1R-phenylethyl)}) | 4300 | – |

| Structure (SMILES) | IC50 (Hepatitis C virus) [nM] | IC50 [nM] |
| --- | --- | --- |
| O=C(O)[C@H](Cc1ccccc1)N(Cc1ccc(-c2nccs2)cc1)C(=O)c1ccc(Cl)cc1Cl (stereo in doubt; form 1) | – | 620 |
| COc1ccc2c(O[C@@H]3C[C@H]4C(=O)N[C@]5(C(=O)O)C[C@H]5/C=C\CCCCC[C@H](NC(=O)OC(C)(C)C)C(=O)N4C3)cc(-n3cccc3)nc2c1 | 5.1 | – |
| O=C(O)C(=O)CC(=O)c1ccccc1OCc1ccccc1 | 44000 | – |
| O=C(O)C(=O)CC(=O)c1ccccc1 | 5700 | – |
| COc1ccc2c(O[C@@H]3C[C@H]4C(=O)N[C@]5(C(=O)O)C[C@H]5/C=C\CCCCC[C@H](NC(=O)OC5CCCC5)C(=O)N4C3)cc(-c3csc(N)n3)nc2c1 | 3.5 | – |
| COc1ccc2c(O[C@@H]3C[C@H]4C(=O)N[C@]5(C(=O)O)C[C@H]5/C=C\CCCCC[C@H](NC(=O)OC5CCCC5)C(=O)N4C3)cc(-n3cccn3)nc2c1 | 2.2 | – |
| O=C(O)C(=O)CC(=O)c1cccc(NS(=O)(=O)c2ccccc2)c1 | 16000 | – |
| CCC[C@@]1(CC(=O)O)OCCc2c1[nH]c1c(C)cc(F)c(C#N)c21 | 630 | – |
| CCC[C@]1(CC(=O)O)OCCc2c1[nH]c1c(C)ccc(C#N)c21 | 330 | – |
| CC(C)(C)c1ccc(C(=O)CC(=O)C(=O)O)cc1 | 50000 | – |
| CCCN(NC(=O)[C@@H]1C[C@@H](OCc2ccccc2)CN1C(=O)[C@@H](NC(=O)[C@@H](NC(=O)[C@@H](CCC(=O)O)NC(=O)[C@H](CC(=O)O)NC(C)=O)[C@@H](C)CC)C(C)C)C(=O)N[C@H]1CCc2ccccc21 (Ac-D[dE]IV[Hyp](Bn)[azaNva]-X5) | 100 | – |
| O=C(O)[C@H](Cc1ccccc1)N(Cc1ccc(-c2cc3ccccc3o2)s1)C(=O)c1ccc(Cl)cc1Cl | 8600 | – |
| O=C(O)[C@H](Cc1ccccc1)N(Cc1ccc(-c2nccs2)cc1)C(=O)c1ccc(Cl)cc1Cl (stereo in doubt; form 2) | – | 5700 |
| N#Cc1c(Cl)cccc1COc1cccc(C(=O)/C=C(\O)C(=O)O)c1 | 110 | – |
| CCCC1(CC(=O)O)OCCc2c1[nH]c1c(C)cc(F)c(C#N)c21 (configuration not stated) | 120 | – |
| CCNc1nc(-c2cc(O[C@@H]3C[C@H]4C(=O)N[C@]5(C(=O)O)C[C@H]5/C=C\CCCCC[C@H](NC(=O)OC5CCCC5)C(=O)N4C3)c3ccc(OC)cc3n2)cs1 | 2.9 | – |
| COC(=O)C(=O)CC(=O)c1ccccc1 | 50000 | – |
| CCCN(NC(=O)[C@@H]1C[C@@H](OCc2ccccc2)CN1C(=O)[C@@H](NC(=O)[C@@H](NC(=O)[C@@H](CCC(=O)O)NC(=O)[C@H](CC(=O)O)NC(C)=O)[C@@H](C)CC)C(C)C)C(=O)NN(C)c1ccccc1 (Ac-D[dE]IV[Hyp](Bn)-X8) | 480 | – |
| COC(=O)c1cccc(CCNC(=O)[C@H](CS)NC(=O)[C@H](CC(C)C)NC(=O)[C@H](CCC(=O)O)NC(=O)OCC(C)C)c1 | 25000 | – |
| C[C@@]1(O)[C@H](O)[C@@H](CO)O[C@H]1n1ncc2c(N)ncnc21 | 100000 | – |
| COc1ccc2c(O[C@@H]3C[C@H]4C(=O)N[C@]5(C(=O)O)C[C@H]5/C=C\CCCCC[C@H](NC(=O)OC5CCCC5)C(=O)N4C3)cc(-n3ccc(C)n3)nc2c1 | 2.2 | – |

| Structure (SMILES) | IC50 (Hepatitis C virus) [nM] | IC50 [nM] |
| --- | --- | --- |
| CC(=O)N[C@H](C(=O)N[C@H](C(=O)N1C[C@H](Oc2cc(-c3ccccc3)nc3ccccc23)C[C@H]1C(=O)NC1(C(=O)O)CC1)C(C)C)C1CCCCC1 (Ac-[Chg]V[Hyp(2-Ph-quinolin-4-yl)][Ac3c]-OH) | 370 | – |
| O=C(O)[C@H](Cc1ccccc1)N(Cc1cccc(Cl)c1)C(=O)c1ccc(Cl)cc1Cl | 1400 | – |
| CCCN(NC(=O)[C@@H]1C[C@@H](OCc2ccccc2)CN1C(=O)[C@@H](NC(=O)[C@@H](NC(=O)[C@@H](CCC(=O)O)NC(=O)[C@H](CC(=O)O)NC(C)=O)[C@@H](C)CC)C(C)C)C(=O)N[C@@H](CC)c1ccccc1 (Ac-D[dE]IV[Hyp](Bn)[azaNva]-{NH(1S-phenylpropyl)}) | 440 | – |
| COc1ccc2c(O[C@@H]3C[C@H]4C(=O)N[C@]5(C(=O)O)C[C@H]5/C=C\CCCCC[C@H](NC(=O)OC5CCCC5)C(=O)N4C3)cc(-n3cccc3)nc2c1 | 3.6 | – |
| CC(=O)N[C@@H](CC(=O)O)C(=O)N[C@@H](CCC(=O)O)C(=O)N[C@H](C(=O)N[C@@H](CCC(=O)O)C(=O)N[C@@H](CC1CCCCC1)C(=O)N[C@@H](CS)C(=O)NC1Cc2ccccc2C1)C(c1ccccc1)c1ccccc1 (Ac-DE[Dip]E[Cha]C-X6) | 1700 | – |
| CCC[C@@]1(CC(=O)O)OCCc2c1[nH]c1c(Cl)ccc(CC)c21 | 15000 | – |
| COc1ccc2c(O[C@@H]3C[C@H]4C(=O)N[C@]5(C(=O)O)C[C@H]5/C=C\CCCCC[C@H](NC(=O)OC(C)(C)C)C(=O)N4C3)cc(-n3ccnc3)nc2c1 | 4.7 | – |
| N#Cc1c(Cl)cc(Cl)cc1COc1cccc(C(=O)/C=C(\O)C(=O)O)c1 | 45 | – |
| CNc1nc(-c2cc(O[C@@H]3C[C@H]4C(=O)N[C@]5(C(=O)O)C[C@H]5/C=C\CCCCC[C@H](NC(=O)OC(C)(C)C)C(=O)N4C3)c3ccc(OC)cc3n2)cs1 | 6.4 | – |
| O=C(O)[C@H](Cc1ccccc1)N(Cc1cccnc1)C(=O)c1ccc(Cl)cc1Cl | 11000 | – |
| CC(=O)N[C@H](C(=O)N[C@H](C(=O)N1C[C@H](OCc2cccc3ccccc23)C[C@H]1C(=O)N[C@@]1(C(=O)O)C[C@@H]1CCc1ccccc1)C(C)C)C1CCCCC1 | 90000 | – |
| O=C(CC(=O)C(=O)O)Cc1ccncc1 | 50000 | – |
| N#Cc1ccc(Br)cc1COc1cccc(C(=O)/C=C(\O)C(=O)O)c1 | 100 | – |
| N#Cc1ccccc1COc1cccc(C(=O)/C=C(\O)C(=O)O)c1 | 230 | – |
| O=C(O)[C@H](Cc1ccccc1)N(Cc1cccc(Br)c1)C(=O)c1ccc(Cl)cc1Cl | 3500 | – |
| CC(=O)N[C@H](C(=O)N[C@H](C(=O)N1C[C@H](OCc2cccc3ccccc23)C[C@H]1C(=O)N[C@@]1(C(=O)O)C[C@@H]1Cc1ccccc1)C(C)C)C1CCCCC1 | 81000 | – |
| O=C(CC(=O)C(=O)O)Cc1ccco1 | 50000 | – |
| CC(=O)N[C@H](C(=O)N[C@H](C(=O)N1C[C@H](OCc2cccc3ccccc23)C[C@H]1C(=O)N[C@@]1(C(=O)O)C[C@@H]1C)C(C)C)C1CCCCC1 | 180000 | – |
| CCCN(NC(=O)[C@@H]1C[C@@H](OCc2ccccc2)CN1C(=O)[C@@H](NC(=O)[C@@H](NC(=O)[C@@H](CCC(=O)O)NC(=O)[C@H](CC(=O)O)NC(C)=O)[C@@H](C)CC)C(C)C)C(=O)N[C@@H](C)c1cccc2ccccc12 (Ac-D[dE]IV[Hyp](Bn)[azaNva]-X2) | 490 | – |
| CC(=O)CC(=O)C(=O)O | 50000 | – |
